{"source": "paper PMC8482623", "about": "(Nature structural & molecular biology, 2020)", "key": {"ΔNmBcs1": {"target": "ΔNmBcs1 (Mus musculus, UniProt Q9CZP5)", "assay": "X-ray crystal structure, […] Å", "conditions": "2 mM AMP-PNP, 20 mM MgCl2, pH 7.5; nucleotide-binding site"}, "[1]": {"target": "T1, mBcs1 (full-length mouse Bcs1; mBcs1-His) (Mus musculus, UniProt Q9CZP5)", "T1 sequence (Q9CZP5 1-418)": "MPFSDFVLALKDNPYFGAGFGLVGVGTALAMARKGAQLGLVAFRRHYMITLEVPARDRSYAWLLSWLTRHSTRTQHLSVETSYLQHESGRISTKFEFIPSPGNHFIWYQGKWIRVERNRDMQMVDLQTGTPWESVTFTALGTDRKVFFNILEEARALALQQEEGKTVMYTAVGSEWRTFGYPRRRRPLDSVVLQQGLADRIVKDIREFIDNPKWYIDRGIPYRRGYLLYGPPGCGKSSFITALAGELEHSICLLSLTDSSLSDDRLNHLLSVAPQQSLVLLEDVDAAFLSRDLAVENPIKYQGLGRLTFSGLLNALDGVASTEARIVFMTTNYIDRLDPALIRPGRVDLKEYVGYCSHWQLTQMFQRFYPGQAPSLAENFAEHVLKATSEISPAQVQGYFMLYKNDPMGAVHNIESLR", "assay": "blue-native PAGE band shift", "format": "binding", "conditions": "conformational change seen as band shift"}}}
{"compound": "Nc1ncnc2c1ncn2[C@@H]1O[C@H](COP(=O)(O)OP(=O)(O)NP(=O)(O)O)[C@@H](O)[C@H]1O", "note": "[AMP-PNP]", "values": [{"measurement": "X-ray crystal structure, 2.2 Å", "setting": "ΔNmBcs1", "result": "yielding a heptameric structure with clearly visible bound AMP-PNP"}, {"measurement": "blue-native PAGE band shift", "setting": "[1]", "result": "incubation of ATPγS or AMP-PNP (nonhydrolyzable ATP) caused a shift in the protein band"}]}
